Measurements taken from the NIST ThermoML archive (doi:10.1021/je100472t).

Assay: xn = mol fraction of the nth substance listed
Conditions: 101 kPa, Liquid; for speed of sound: Pulse-echo method; for mass density: Vibrating tube method

c1ccncc1 [pyridine] + CCC(C)=O
Conditions	mass density [kg/m3]	speed of sound [m/s]
293.15 K, x2 = 0.0584	972.18	1424.6
293.15 K, x2 = 0.101	964.232	1415.8
293.15 K, x2 = 0.1557	954.114	1404.3
293.15 K, x2 = 0.2073	944.625	1393.3
293.15 K, x2 = 0.2479	937.177	1384.6
293.15 K, x2 = 0.2928	929.036	1374.9
293.15 K, x2 = 0.3534	918.142	1361.8
293.15 K, x2 = 0.3992	909.88	1351.6
293.15 K, x2 = 0.4535	900.169	1339.5
293.15 K, x2 = 0.4962	892.606	1330
293.15 K, x2 = 0.5461	883.748	1318.7
293.15 K, x2 = 0.5481	883.417	1318.2
293.15 K, x2 = 0.6003	874.227	1306.4
293.15 K, x2 = 0.6425	866.814	1296.7
293.15 K, x2 = 0.6948	857.663	1284.5
293.15 K, x2 = 0.7267	852.119	1277.1
293.15 K, x2 = 0.7519	847.742	1271.2
293.15 K, x2 = 0.8053	838.532	1258.7
293.15 K, x2 = 0.855	829.934	1246.9
293.15 K, x2 = 0.8907	823.832	1238.4
293.15 K, x2 = 0.9459	814.255	1224.9
298.15 K, x2 = 0.0517	968.413	1405.7
298.15 K, x2 = 0.1009	959.234	1395.4
298.15 K, x2 = 0.151	949.923	1384.8
298.15 K, x2 = 0.1952	941.811	1375.4
298.15 K, x2 = 0.2473	932.304	1364.2
298.15 K, x2 = 0.301	922.495	1352.5
298.15 K, x2 = 0.3559	912.585	1340.4
298.15 K, x2 = 0.4041	903.885	1329.7
298.15 K, x2 = 0.4494	895.816	1319.6
298.15 K, x2 = 0.4994	886.914	1308.4
298.15 K, x2 = 0.5472	878.48	1297.6
298.15 K, x2 = 0.5916	870.664	1287.4
298.15 K, x2 = 0.6951	852.55	1263.5
298.15 K, x2 = 0.7563	841.861	1249.2
298.15 K, x2 = 0.8029	833.777	1238.1
298.15 K, x2 = 0.8525	825.199	1226.2
298.15 K, x2 = 0.8944	817.974	1216.2
298.15 K, x2 = 0.9525	808.018	1202.3
303.15 K, x2 = 0.0589	962.089	1384.7
303.15 K, x2 = 0.117	951.238	1372.5
303.15 K, x2 = 0.162	942.929	1362.9
303.15 K, x2 = 0.2056	934.925	1353.6
303.15 K, x2 = 0.2489	926.99	1344.2
303.15 K, x2 = 0.3075	916.353	1331.5
303.15 K, x2 = 0.3506	908.572	1322
303.15 K, x2 = 0.4016	899.409	1310.8
303.15 K, x2 = 0.4494	890.804	1300
303.15 K, x2 = 0.4959	882.52	1289.5
303.15 K, x2 = 0.5482	873.285	1277.7
303.15 K, x2 = 0.5967	864.734	1266.6
303.15 K, x2 = 0.6484	855.625	1254.6
303.15 K, x2 = 0.6972	847.054	1243.1
303.15 K, x2 = 0.7446	838.804	1232.1
303.15 K, x2 = 0.7952	829.99	1220
303.15 K, x2 = 0.8476	820.935	1207.6
303.15 K, x2 = 0.8928	813.143	1196.8
303.15 K, x2 = 0.9371	805.515	1186
